From the kinase profiling compilation of Christmann-Franck et al. (2016)

How the values were obtained:
Experiment in all cases: KINOMEscan competition binding
Conditions in all cases: compound 10.0 µM
[1] = molecular target: ACVR2A (human) (UniProt P27037)
[2] = molecular target: RIOK3 (human) (UniProt O14730)
[3] = molecular target: HIPK1 (human) (UniProt Q86Z02)
[4] = tested on: KIT (human), P10721 [D816V]
[5] = molecular target: MAP3K5 (human) (UniProt Q99683)
[6] = molecular target: CLK1 (human) (UniProt P49759)
[7] = molecular target: CLK4 (human) (UniProt Q9HAZ1)
[8] = molecular target: RIOK2 (human) (UniProt Q9BVS4)
[9] = molecular target: MAP4K4 (human) (UniProt O95819)
[10] = molecular target: BMPR1B (human) (UniProt O00238)
[11] = molecular target: BMP2K (human) (UniProt Q9NSY1)
[12] = molecular target: SRPK2 (human) (UniProt P78362)
[13] = molecular target: DAPK2 (human) (UniProt Q9UIK4)
[14] = molecular target: TAOK1 (human) (UniProt Q7L7X3)
[15] = molecular target: MAP4K2 (human) (UniProt Q12851)
[16] = molecular target: TGFBR2 (human) (UniProt P37173)
[17] = molecular target: KIT (human) (UniProt P10721)
[18] = molecular target: PIP4K2B (human) (UniProt P78356)
[19] = molecular target: DYRK1B (human) (UniProt Q9Y463)
[20] = molecular target: CDK7 (human) (UniProt P50613)
[21] = molecular target: STK17A (human) (UniProt Q9UEE5)
[22] = molecular target: RIOK1 (human) (UniProt Q9BRS2)
[23] = molecular target: FLT3 (human) (UniProt P36888)
[24] = molecular target: CAMKK2 (human) (UniProt Q96RR4)
[25] = tested on: KIT (human), P10721 [V559D/T670I]
[26] = molecular target: BRSK2 (human) (UniProt Q8IWQ3)
[27] = molecular target: PIK3CG (human) (UniProt P48736)
[28] = molecular target: DCLK3 (human) (UniProt Q9C098)
[29] = molecular target: GSK3A (human) (UniProt P49840)
[30] = molecular target: CSNK1D (human) (UniProt P48730)
[31] = tested on: KIT (human), P10721 [V559D/V654A]
[32] = molecular target: JAK1 JH2 pseudokinase (human) (UniProt P23458)
[33] = molecular target: RPS6KA6 KD2 (human) (UniProt Q9UK32)
[34] = molecular target: TLK1 (human) (UniProt Q9UKI8)
[35] = molecular target: RPS6KA1 KD2 (human) (UniProt Q15418)
[36] = tested on: FLT3 (human), P36888 [D835H]
[37] = molecular target: STK24 (human) (UniProt Q9Y6E0)
[38] = molecular target: CSNK1E (human) (UniProt P49674)
[39] = molecular target: TNK1 (human) (UniProt Q13470)
[40] = tested on: FLT3 (human), P36888 [ITD]
[41] = molecular target: MKNK2 (human) (UniProt Q9HBH9)
[42] = molecular target: MAP2K4 (human) (UniProt P45985)

Sequence of ACVR2A (human) (P27037 whole entry, looked up): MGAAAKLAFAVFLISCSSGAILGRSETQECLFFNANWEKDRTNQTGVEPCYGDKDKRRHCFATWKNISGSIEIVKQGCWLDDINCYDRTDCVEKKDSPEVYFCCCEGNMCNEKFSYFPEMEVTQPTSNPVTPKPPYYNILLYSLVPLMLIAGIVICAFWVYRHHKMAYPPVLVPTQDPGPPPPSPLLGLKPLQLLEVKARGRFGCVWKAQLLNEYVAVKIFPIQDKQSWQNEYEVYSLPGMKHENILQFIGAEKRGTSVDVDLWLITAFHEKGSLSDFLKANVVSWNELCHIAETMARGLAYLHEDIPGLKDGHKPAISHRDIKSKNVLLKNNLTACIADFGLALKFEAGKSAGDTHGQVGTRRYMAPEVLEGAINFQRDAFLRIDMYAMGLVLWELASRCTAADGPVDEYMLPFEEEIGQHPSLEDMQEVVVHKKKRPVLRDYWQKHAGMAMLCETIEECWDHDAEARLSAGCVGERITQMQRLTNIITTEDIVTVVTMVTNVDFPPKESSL
Sequence of DAPK2 (human) (Q9UIK4 whole entry, looked up): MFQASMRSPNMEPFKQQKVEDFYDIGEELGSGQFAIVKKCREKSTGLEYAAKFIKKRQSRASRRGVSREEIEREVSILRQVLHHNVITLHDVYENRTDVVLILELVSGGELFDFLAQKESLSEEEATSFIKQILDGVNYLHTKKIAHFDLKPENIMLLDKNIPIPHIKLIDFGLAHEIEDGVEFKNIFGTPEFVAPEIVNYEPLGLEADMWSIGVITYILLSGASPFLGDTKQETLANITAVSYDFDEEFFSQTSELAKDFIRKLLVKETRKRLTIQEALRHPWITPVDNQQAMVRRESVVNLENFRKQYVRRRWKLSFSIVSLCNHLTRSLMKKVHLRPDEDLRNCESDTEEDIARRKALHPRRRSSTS
Sequence of KIT (human) (P10721 whole entry, looked up): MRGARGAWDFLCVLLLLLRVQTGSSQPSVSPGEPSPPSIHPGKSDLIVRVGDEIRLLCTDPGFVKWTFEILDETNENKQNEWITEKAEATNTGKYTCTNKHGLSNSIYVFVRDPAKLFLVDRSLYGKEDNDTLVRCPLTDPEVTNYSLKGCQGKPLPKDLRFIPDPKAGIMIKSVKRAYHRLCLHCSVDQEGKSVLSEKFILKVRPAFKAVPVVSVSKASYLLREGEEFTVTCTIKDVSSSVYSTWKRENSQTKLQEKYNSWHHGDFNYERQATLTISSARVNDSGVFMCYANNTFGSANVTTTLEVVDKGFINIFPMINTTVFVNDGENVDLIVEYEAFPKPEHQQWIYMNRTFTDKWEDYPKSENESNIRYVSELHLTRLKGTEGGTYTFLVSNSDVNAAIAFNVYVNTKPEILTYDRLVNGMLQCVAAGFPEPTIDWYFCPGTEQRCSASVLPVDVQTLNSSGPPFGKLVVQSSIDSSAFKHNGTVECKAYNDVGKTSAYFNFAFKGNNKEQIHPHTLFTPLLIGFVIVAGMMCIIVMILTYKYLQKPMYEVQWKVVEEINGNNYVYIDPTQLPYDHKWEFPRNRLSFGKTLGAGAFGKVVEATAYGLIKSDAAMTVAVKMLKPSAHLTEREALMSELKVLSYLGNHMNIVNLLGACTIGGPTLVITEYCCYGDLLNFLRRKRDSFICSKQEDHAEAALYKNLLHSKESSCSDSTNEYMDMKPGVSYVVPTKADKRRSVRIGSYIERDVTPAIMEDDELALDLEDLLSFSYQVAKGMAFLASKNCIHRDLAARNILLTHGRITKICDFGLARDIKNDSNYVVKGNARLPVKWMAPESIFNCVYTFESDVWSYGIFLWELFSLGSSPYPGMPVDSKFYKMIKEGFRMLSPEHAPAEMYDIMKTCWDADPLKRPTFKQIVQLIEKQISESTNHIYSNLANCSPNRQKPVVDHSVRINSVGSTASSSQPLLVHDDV
Sequence of CLK4 (human) (Q9HAZ1 whole entry, looked up): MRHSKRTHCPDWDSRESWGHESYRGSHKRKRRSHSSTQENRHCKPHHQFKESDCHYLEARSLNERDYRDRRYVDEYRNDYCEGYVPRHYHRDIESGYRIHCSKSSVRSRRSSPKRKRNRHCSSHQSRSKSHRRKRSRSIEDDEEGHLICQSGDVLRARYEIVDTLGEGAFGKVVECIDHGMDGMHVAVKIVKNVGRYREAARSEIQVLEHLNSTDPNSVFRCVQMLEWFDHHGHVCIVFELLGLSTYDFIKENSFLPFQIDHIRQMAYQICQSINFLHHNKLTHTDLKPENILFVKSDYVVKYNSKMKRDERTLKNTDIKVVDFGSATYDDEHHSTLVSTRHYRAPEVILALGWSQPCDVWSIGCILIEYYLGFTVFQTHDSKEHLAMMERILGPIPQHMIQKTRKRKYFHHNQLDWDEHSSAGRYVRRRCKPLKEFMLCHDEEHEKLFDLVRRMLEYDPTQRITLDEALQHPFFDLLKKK
Sequence of DCLK3 (human) (Q9C098 whole entry, looked up): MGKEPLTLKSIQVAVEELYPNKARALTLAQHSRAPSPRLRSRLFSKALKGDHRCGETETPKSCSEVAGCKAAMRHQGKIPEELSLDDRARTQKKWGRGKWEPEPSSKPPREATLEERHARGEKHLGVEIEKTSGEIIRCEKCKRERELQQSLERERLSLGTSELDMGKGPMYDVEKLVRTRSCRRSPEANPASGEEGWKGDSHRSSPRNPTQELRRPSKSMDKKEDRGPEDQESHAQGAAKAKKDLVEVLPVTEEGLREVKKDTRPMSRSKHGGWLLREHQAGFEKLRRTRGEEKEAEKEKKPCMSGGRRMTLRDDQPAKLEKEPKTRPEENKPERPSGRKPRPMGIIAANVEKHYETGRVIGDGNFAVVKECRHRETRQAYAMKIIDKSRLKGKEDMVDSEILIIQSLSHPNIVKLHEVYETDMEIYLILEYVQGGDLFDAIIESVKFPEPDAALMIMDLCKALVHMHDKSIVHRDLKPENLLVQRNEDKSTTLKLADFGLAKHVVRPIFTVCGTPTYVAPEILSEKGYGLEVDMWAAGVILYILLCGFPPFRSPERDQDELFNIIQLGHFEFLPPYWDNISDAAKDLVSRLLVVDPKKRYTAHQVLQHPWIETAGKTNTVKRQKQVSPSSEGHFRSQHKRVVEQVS
Sequence of RIOK1 (human) (Q9BRS2 whole entry, looked up): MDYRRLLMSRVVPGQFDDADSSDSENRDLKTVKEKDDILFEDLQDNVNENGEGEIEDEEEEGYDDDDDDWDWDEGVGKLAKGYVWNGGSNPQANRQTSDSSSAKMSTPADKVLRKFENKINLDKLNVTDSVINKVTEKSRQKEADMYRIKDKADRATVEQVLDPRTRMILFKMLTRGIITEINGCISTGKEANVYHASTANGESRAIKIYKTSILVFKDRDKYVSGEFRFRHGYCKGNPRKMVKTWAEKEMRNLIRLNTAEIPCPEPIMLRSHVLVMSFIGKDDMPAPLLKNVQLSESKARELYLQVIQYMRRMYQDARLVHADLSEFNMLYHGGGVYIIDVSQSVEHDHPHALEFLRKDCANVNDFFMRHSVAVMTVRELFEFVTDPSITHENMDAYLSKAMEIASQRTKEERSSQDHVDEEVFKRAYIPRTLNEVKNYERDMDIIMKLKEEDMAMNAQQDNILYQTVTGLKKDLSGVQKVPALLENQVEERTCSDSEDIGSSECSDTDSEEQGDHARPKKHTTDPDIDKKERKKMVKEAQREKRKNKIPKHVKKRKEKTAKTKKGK
Sequence of PIP4K2B (human) (P78356 whole entry, looked up): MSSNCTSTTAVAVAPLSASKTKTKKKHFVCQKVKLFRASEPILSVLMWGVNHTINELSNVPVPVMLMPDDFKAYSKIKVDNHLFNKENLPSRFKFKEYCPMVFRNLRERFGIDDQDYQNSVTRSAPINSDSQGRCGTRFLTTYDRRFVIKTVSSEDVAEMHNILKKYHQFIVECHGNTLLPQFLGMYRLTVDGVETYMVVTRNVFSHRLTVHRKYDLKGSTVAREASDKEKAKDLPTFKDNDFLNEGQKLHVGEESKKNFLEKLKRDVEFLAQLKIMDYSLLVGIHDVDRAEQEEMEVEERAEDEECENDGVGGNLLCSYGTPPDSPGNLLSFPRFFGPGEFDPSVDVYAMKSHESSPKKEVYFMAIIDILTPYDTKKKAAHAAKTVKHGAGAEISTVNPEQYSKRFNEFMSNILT
Sequence of RIOK3 (human) (O14730 whole entry, looked up): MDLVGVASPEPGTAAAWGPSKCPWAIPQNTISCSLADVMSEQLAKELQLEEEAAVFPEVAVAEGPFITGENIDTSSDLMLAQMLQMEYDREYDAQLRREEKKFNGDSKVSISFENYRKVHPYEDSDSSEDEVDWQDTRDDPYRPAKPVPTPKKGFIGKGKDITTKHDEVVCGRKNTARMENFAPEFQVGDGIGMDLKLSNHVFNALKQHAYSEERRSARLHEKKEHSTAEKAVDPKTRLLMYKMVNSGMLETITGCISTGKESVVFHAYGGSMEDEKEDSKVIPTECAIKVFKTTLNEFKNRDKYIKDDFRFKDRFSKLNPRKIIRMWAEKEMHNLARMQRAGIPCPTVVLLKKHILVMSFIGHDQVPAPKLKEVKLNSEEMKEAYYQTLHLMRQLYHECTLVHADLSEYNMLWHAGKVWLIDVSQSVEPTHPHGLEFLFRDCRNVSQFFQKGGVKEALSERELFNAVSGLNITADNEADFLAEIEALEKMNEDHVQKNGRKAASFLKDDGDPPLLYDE
Sequence of CDK7 (human) (P50613 whole entry, looked up): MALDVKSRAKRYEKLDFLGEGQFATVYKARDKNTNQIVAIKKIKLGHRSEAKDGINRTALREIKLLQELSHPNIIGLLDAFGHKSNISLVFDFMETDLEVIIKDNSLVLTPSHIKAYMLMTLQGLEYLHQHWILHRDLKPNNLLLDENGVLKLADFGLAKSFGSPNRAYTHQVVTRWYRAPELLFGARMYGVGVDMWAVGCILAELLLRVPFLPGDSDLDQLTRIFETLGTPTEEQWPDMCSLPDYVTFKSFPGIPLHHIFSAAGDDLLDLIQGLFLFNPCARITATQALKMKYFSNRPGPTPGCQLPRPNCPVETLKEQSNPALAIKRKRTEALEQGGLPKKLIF

| Structure (SMILES) | kinase still bound, per cent of control [1] [%] | kinase still bound, per cent of control [2] [%] | kinase still bound, per cent of control [3] [%] | kinase still bound, per cent of control [4] [%] | kinase still bound, per cent of control [5] [%] | kinase still bound, per cent of control [6] [%] | kinase still bound, per cent of control [7] [%] | kinase still bound, per cent of control [10] [%] | kinase still bound, per cent of control [11] [%] | kinase still bound, per cent of control [13] [%] | kinase still bound, per cent of control [14] [%] | kinase still bound, per cent of control [16] [%] | kinase still bound, per cent of control [18] [%] | kinase still bound, per cent of control [19] [%] | kinase still bound, per cent of control [20] [%] | kinase still bound, per cent of control [21] [%] | kinase still bound, per cent of control [22] [%] | kinase still bound, per cent of control [24] [%] | kinase still bound, per cent of control [26] [%] | kinase still bound, per cent of control [28] [%] | other results |
| --- | --- | --- | --- | --- | --- | --- | --- | --- | --- | --- | --- | --- | --- | --- | --- | --- | --- | --- | --- | --- | --- |
| CS(=O)(=O)Nc1ccc(-c2cc(/C=C3\SC(=N)NC3=O)c[nH]c2=O)cc1 | 6.6 | 6 | 0.5 | 19 | 4.6 | 1.6 | 6 | 4.1 | 2.2 | 2.2 | 23 | 0.85 | 13 | 3.2 | 26 | 3.4 | 11 | 31 |  |  | kinase still bound, per cent of control [8]: 33%; kinase still bound, per cent of control [9]: 25%; kinase still bound, per cent of control [12]: 2.3%; kinase still bound, per cent of control [15]: 12%; kinase still bound, per cent of control [17]: 22%; kinase still bound, per cent of control [23]: 8.6%; kinase still bound, per cent of control [25]: 32% |
| N=C1NC(=O)/C(=C/c2ccc(-c3cncc4ccccc34)o2)S1 | 8.6 | 2.2 |  | 3.8 |  | 2 | 2.8 |  | 0 | 7.4 | 10 | 0.85 | 2.6 | 11 | 14 | 0.05 | 1.4 | 7.4 | 7.1 | 30 | kinase still bound, per cent of control [31]: 23%; kinase still bound, per cent of control [32]: 13%; kinase still bound, per cent of control [30]: 3.4%; kinase still bound, per cent of control [33]: 8.6%; kinase still bound, per cent of control [12]: 9.9%; kinase still bound, per cent of control [34]: 28%; kinase still bound, per cent of control [15]: 6.9%; kinase still bound, per cent of control [35]: 11%; kinase still bound, per cent of control [17]: 10%; kinase still bound, per cent of control [36]: 3.3%; kinase still bound, per cent of control [29]: 14%; kinase still bound, per cent of control [37]: 16%; kinase still bound, per cent of control [38]: 1.4%; kinase still bound, per cent of control [23]: 10%; kinase still bound, per cent of control [39]: 14%; kinase still bound, per cent of control [25]: 14%; kinase still bound, per cent of control [40]: 1.2% |
| O=C1NC(=S)S/C1=C\c1ccc(-c2cncc3ccccc23)o1 |  | 5.5 | 3.4 | 9.6 |  | 5.6 | 6.1 |  | 0.4 | 9.3 |  | 5.2 | 5.5 | 13 |  | 0 | 3.7 | 14 | 29 |  | kinase still bound, per cent of control [8]: 3.4%; kinase still bound, per cent of control [9]: 25%; kinase still bound, per cent of control [31]: 23%; kinase still bound, per cent of control [32]: 8.5%; kinase still bound, per cent of control [41]: 23%; kinase still bound, per cent of control [33]: 5.4%; kinase still bound, per cent of control [12]: 32%; kinase still bound, per cent of control [34]: 5.8%; kinase still bound, per cent of control [35]: 2.6%; kinase still bound, per cent of control [27]: 16%; kinase still bound, per cent of control [42]: 20%; kinase still bound, per cent of control [17]: 21%; kinase still bound, per cent of control [36]: 7.4%; kinase still bound, per cent of control [37]: 12%; kinase still bound, per cent of control [38]: 7%; kinase still bound, per cent of control [23]: 16%; kinase still bound, per cent of control [39]: 8.4%; kinase still bound, per cent of control [40]: 6.2% |
| N=C1NC(=O)/C(=C/c2ccc(-c3ccccc3O)o2)S1 | 31 | 20 | 1.4 |  | 19 | 3.4 | 5.2 | 8.8 | 14 | 3.2 | 0 | 3.6 | 28 | 1.8 | 1.4 | 0.4 | 21 | 18 | 29 | 2.9 | kinase still bound, per cent of control [42]: 16% |

Now from value to molecule, other results behind:

| kinase still bound, per cent of control [1] [%] | kinase still bound, per cent of control [2] [%] | kinase still bound, per cent of control [3] [%] | kinase still bound, per cent of control [4] [%] | kinase still bound, per cent of control [5] [%] | kinase still bound, per cent of control [6] [%] | kinase still bound, per cent of control [7] [%] | kinase still bound, per cent of control [10] [%] | kinase still bound, per cent of control [11] [%] | kinase still bound, per cent of control [13] [%] | kinase still bound, per cent of control [14] [%] | kinase still bound, per cent of control [16] [%] | kinase still bound, per cent of control [18] [%] | kinase still bound, per cent of control [19] [%] | kinase still bound, per cent of control [20] [%] | kinase still bound, per cent of control [21] [%] | kinase still bound, per cent of control [22] [%] | kinase still bound, per cent of control [24] [%] | kinase still bound, per cent of control [26] [%] | kinase still bound, per cent of control [28] [%] | Structure (SMILES) | other results |
| --- | --- | --- | --- | --- | --- | --- | --- | --- | --- | --- | --- | --- | --- | --- | --- | --- | --- | --- | --- | --- | --- |
|  |  | 0.35 |  | 31 | 0.55 | 6.4 |  |  | 24 | 2.2 | 9 |  | 5.6 | 1 | 0.3 |  | 33 | 17 | 2.7 | N=C1NC(=O)/C(=C/c2ccc(-c3ccc(C(N)=O)cc3O)o2)S1 | kinase still bound, per cent of control [27]: 2.6%; kinase still bound, per cent of control [29]: 17% |
|  |  | 0.15 |  | 14 | 1.3 | 2.1 | 12 |  | 4.1 | 0 | 5 |  | 3.6 | 0.95 | 0.3 | 23 | 22 | 23 | 1 | N=C1NC(=O)/C(=C/c2ccc(-c3ccc(F)cc3O)o2)S1 | kinase still bound, per cent of control [30]: 24%; kinase still bound, per cent of control [27]: 0% |
